The source made the active and inactive calls.
Legend:
Type in all cases: functional, cell-based
[1] = system: HeLa; test: Cytotoxicity against human HeLa cells at 50 uM after 90 mins by MTS assay
[2] = system: A549; test: Cytotoxicity against human A549 cells at 50 uM after 90 mins by MTS assay
[3] = system: MCF7; test: Cytotoxicity against human MCF7 cells at 50 uM after 90 mins by MTS assay
[4] = system: HCT-116; test: Cytotoxicity against human HCT116 cells at 50 uM after 90 mins by MTS assay
[5] = system: SW480; test: Cytotoxicity against human SW480 cells at 50 uM after 90 mins by MTS assay
[6] = system: T-24; test: Cytotoxicity against human T24 cells at 50 uM after 90 mins by MTS assay

Measured: Activity

COc1cc2c3c4c(c(O)cc(C)c14)C(=O)O[C@@H]3[C@@H]1C[C@@H](C)O[C@]1(C[C@H]1CCC(=O)O1)O2
inactive: all assays above

Source: ChEMBL document CHEMBL3588825, “Identification of Oxaphenalenone Ketals from the Ascomycete Fungus Neonectria sp” (J Nat Prod, 2015)
